Laboratory results taken from patent EP0465096A1, “Plasma cholesterol level lowering composition” (MERCK & CO. INC., priority 1990, dated 1992).
Marks after values point to notes of the source that are not given here.

System: dogs
Experiment: Plasma cholesterol lowering in dogs, oral bolus (rapid release) vs 24 h gastric infusion (Example 1)
Type: in vivo
Settings: ammonium salt, 10 mg/kg/day for 28 days, vs pre-dosing level
Method: 7-[1,2,6,7,8,8a(R)-hexahydro-2(S),6(R)-dimethyl-8(S)-(2,2-dimethylbutyryloxy)-naphthalenyl-1(S)]-3(R),5(R)-dihydroxyheptanoic acid, an HMG-CoA reductase inhibitor which is the ring opened dihydroxy acid of simvastatin, was administered to dogs as the ammonium salt as either an oral bolus dose (rapid release) or as a continuous gastric infusion over 24 hours (simulated controlled release). In both cases, each dog received a dose of 10 mg/kg/day for 28 days of the above named HMG-CoA reductase inhibitor. Plasma cholesterol was determined throughout the entire study and drug-treatment levels compared to control cholesterol levels (pre-dosing) for each dog. Circulating plasma levels of the above named HMG-CoA reductase inhibitor were determined on Day 16 of each drug dosing period.

CCC(C)(C)C(=O)O[C@H]1C[C@@H](C)C=C2C=C[C@H](C)[C@H](CC[C@@H](O)C[C@@H](O)CC(=O)O)[C@H]21 [7-[1,2,6,7,8,8a(R)-hexahydro-2(S),6(R)-dimethyl-8(S)-(2,2-dimethylbutyryloxy)-naphthalenyl-1(S)]-3(R),5(R)-dihydroxyheptanoic acid]
Mean Maximum Reduction In Plasma Cholesterol (continuous gastric infusion over 24 hours (simulated controlled release), mean ± SD, n = 4 dogs): 60 ± 4.0^b percent | Mean Maximum Reduction In Plasma Cholesterol (oral bolus dose (rapid release), n = 1 dog): 31^a percent
